Measurements from PubChem BioAssay AID248 (DTP/NCI, 2004).
Toxic doses and inconclusive results are not listed. Cut-off read from the data, not from the text of the source: active = T/C of 150% or more; inactive = T/C below 125%.

System: L1210 leukemia ip in BDF1 mice, survival T/C
Assay: NCI In Vivo Anticancer Drug Screen. Data for tumor model L1210 Leukemia (intraperitoneal) in B6D2F1 (BDF1) mice
Settings: endpoint: mean survival time, higher = longer survival
In short: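 Survival endpoint. Drug-treated group vs vehicle group, expressed as T divided by C. Tumor passaged by transplantation.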

[1] = dose: 100.0 mg/kg/injection, schedule: Q01DX001 (ip), vehicle: saline
[2] = dose: 200.0 mg/kg/injection, schedule: Q01DX001 (ip), vehicle: saline
[3] = dose: 400.0 mg/kg/injection, schedule: Q01DX001 (ip), vehicle: saline
[4] = dose: 100.0 mg/kg/injection, schedule: Q04DX003 (ip), vehicle: saline
[5] = dose: 200.0 mg/kg/injection, schedule: Q04DX003 (ip), vehicle: saline
[6] = dose: 400.0 mg/kg/injection, schedule: Q04DX003 (ip), vehicle: saline
[7] = dose: 75.0 mg/kg/injection, schedule: Q01DX001 (ip), vehicle: saline
[8] = dose: 150.0 mg/kg/injection, schedule: Q01DX001 (ip), vehicle: saline
[9] = dose: 100.0 mg/kg/injection, schedule: Q01DX001 (ip), vehicle: Klucel (hydroxypropylcellulose) (HPC)
[10] = dose: 100.0 mg/kg/injection, schedule: Q01DX009 (ip), vehicle: Klucel (hydroxypropylcellulose) (HPC)
[11] = dose: 100.0 mg/kg/injection, schedule: Q04DX003 (ip), vehicle: Klucel (hydroxypropylcellulose) (HPC)
[12] = dose: 200.0 mg/kg/injection, schedule: Q01DX001 (ip), vehicle: Klucel (hydroxypropylcellulose) (HPC)
[13] = dose: 200.0 mg/kg/injection, schedule: Q01DX009 (ip), vehicle: Klucel (hydroxypropylcellulose) (HPC)
[14] = dose: 200.0 mg/kg/injection, schedule: Q04DX003 (ip), vehicle: Klucel (hydroxypropylcellulose) (HPC)
[15] = dose: 400.0 mg/kg/injection, schedule: Q01DX001 (ip), vehicle: Klucel (hydroxypropylcellulose) (HPC)
[16] = dose: 400.0 mg/kg/injection, schedule: Q01DX009 (ip), vehicle: Klucel (hydroxypropylcellulose) (HPC)
[17] = dose: 400.0 mg/kg/injection, schedule: Q04DX003 (ip), vehicle: Klucel (hydroxypropylcellulose) (HPC)
[18] = dose: 100.0 mg/kg/injection, schedule: Q04DX002 (ip), vehicle: saline
[19] = dose: 200.0 mg/kg/injection, schedule: Q04DX002 (ip), vehicle: saline
[20] = dose: 400.0 mg/kg/injection, schedule: Q04DX002 (ip), vehicle: saline
[21] = dose: 100.0 mg/kg/injection, schedule: Q01DX001 (ip), vehicle: carboxymethylcellulose (CMC)
[22] = dose: 200.0 mg/kg/injection, schedule: Q01DX001 (ip), vehicle: carboxymethylcellulose (CMC)
[23] = dose: 400.0 mg/kg/injection, schedule: Q01DX001 (ip), vehicle: carboxymethylcellulose (CMC)
[24] = dose: 100.0 mg/kg/injection, schedule: Q04DX003 (ip), vehicle: saline with Tween-80
[25] = dose: 200.0 mg/kg/injection, schedule: Q04DX003 (ip), vehicle: saline with Tween-80

Measured: T/C

C[C@@H]1C[C@@]2(C)[C@@H](CC[C@@H]3[C@@H]2CC[C@]2(C)[C@@H](O)CC[C@@H]32)C[C@@H]1O
inactive: dose: 62.5 mg/kg/injection, schedule: Q01DX015 (sc), vehicle: steriod suspending solution 100 % of control | dose: 125.0 mg/kg/injection, schedule: Q01DX015 (sc), vehicle: steriod suspending solution 94 % of control | dose: 250.0 mg/kg/injection, schedule: Q01DX015 (sc), vehicle: steriod suspending solution 102 % of control | dose: 500.0 mg/kg/injection, schedule: Q01DX015 (sc), vehicle: steriod suspending solution 94 % of control

O=C(O)C(CS(=O)(=O)O)Nc1ncnc2nc[nH]c12 (stereo not drawn)
inactive: [1] 93 % of control | [2] 98 % of control | [3] 98 % of control

CC(=O)OC1=CC2(OC(C)=O)CC1C1C(=O)OC(=O)C12 (stereo not drawn)
inactive: [1] 101 % of control | [4] 96 % of control | [2] 98 % of control | [5] 96 % of control | [3] 88 % of control | [6] 86 % of control

O=C(COc1ccc(Cl)cc1)Nc1ccccc1Br
inactive: dose: 100.0 mg/kg/injection, schedule: Q04DX002 (ip), vehicle: saline + alcohol 96 % of control | dose: 200.0 mg/kg/injection, schedule: Q04DX002 (ip), vehicle: saline + alcohol 107 % of control | dose: 400.0 mg/kg/injection, schedule: Q04DX002 (ip), vehicle: saline + alcohol 103 % of control

CC[N+](C)(C)CC(C)C
inactive: [7] 104 % of control | [8] 107 % of control

Nc1nc(-c2cc(Br)ccc2N=NN2CCOCC2)nc2ccc(Br)cc12
inactive: dose: 100.0 mg/kg/injection, schedule: Q04DX002 (ip), vehicle: Klucel (hydroxypropylcellulose) (HPC) 105 % of control | dose: 200.0 mg/kg/injection, schedule: Q04DX002 (ip), vehicle: Klucel (hydroxypropylcellulose) (HPC) 96 % of control | dose: 400.0 mg/kg/injection, schedule: Q04DX002 (ip), vehicle: Klucel (hydroxypropylcellulose) (HPC) 89 % of control

CC(C)(C)OC(=O)C(=[N+]=[N-])C(=O)OC(C)(C)C
inactive: [9] 97 % of control | [10] 102 % of control | [11] 98 % of control | [12] 97 % of control | [13] 105 % of control | [14] 104 % of control | [15] 90 % of control | [16] 105 % of control | [17] 104 % of control

COc1ccc(O)c(/C=N/NC(N)=S)c1
inactive: [10] 100 % of control | [11] 115 % of control | [13] 104 % of control | [14] 96 % of control | [16] 100 % of control | [17] 97 % of control

COc1ccccc1CCC=O
inactive: dose: 50.0 mg/kg/injection, schedule: Q01DX001 (ip), vehicle: saline 96 % of control | [1] 96 % of control | [2] 102 % of control | [3] 102 % of control

CN(C)c1ccc(/C=N/NC(=O)C(O)C(O)C(O)C(O)CO)cc1 (stereo not drawn)
inactive: [10] 97 % of control | [13] 96 % of control | [16] 102 % of control

O=C(CC1OCCO1)c1ccccc1
inactive: dose: 50.0 mg/kg/injection, schedule: Q04DX002 (ip), vehicle: saline 95 % of control | [18] 89 % of control | [19] 95 % of control | [20] 95 % of control

CC1(C)N=C(N)N=C(N)N1c1cccc(OCCCOc2ccc(N)cc2)c1
inactive: dose: 5.0 mg/kg/injection, schedule: Q01DX001 (ip), vehicle: saline 97 % of control | dose: 10.0 mg/kg/injection, schedule: Q01DX001 (ip), vehicle: saline 100 % of control | dose: 20.0 mg/kg/injection, schedule: Q01DX001 (ip), vehicle: saline 101 % of control | dose: 40.0 mg/kg/injection, schedule: Q01DX001 (ip), vehicle: saline 100 % of control

C=C1CC(O)C2C(C)C(=O)OC2C2C1CC1OC12C (stereo not drawn)
inactive: [18] 92 % of control | [19] 95 % of control | [20] 92 % of control

COC(=O)C(Cc1c[nH]c2ccccc12)NC(=O)C(NC(=O)OC(C)(C)C)C(C)C (stereo not drawn)
inactive: [21] 100 % of control | [22] 94 % of control | [23] 92 % of control

CCSCCC(N)C(=O)O (stereo not drawn)
inactive: dose: 10.25 mg/kg/injection, schedule: Q01DX Z (ip), vehicle: carboxymethylcellulose (CMC) 97 % of control | dose: 18.75 mg/kg/injection, schedule: Q01DX Z (ip), vehicle: carboxymethylcellulose (CMC) 91 % of control | dose: 20.5 mg/kg/injection, schedule: Q01DX Z (ip), vehicle: carboxymethylcellulose (CMC) 113 % of control | dose: 37.5 mg/kg/injection, schedule: Q01DX Z (ip), vehicle: carboxymethylcellulose (CMC) 93 % of control | dose: 41.0 mg/kg/injection, schedule: Q01DX Z (ip), vehicle: carboxymethylcellulose (CMC) 103 % of control | dose: 75.0 mg/kg/injection, schedule: Q01DX Z (ip), vehicle: carboxymethylcellulose (CMC) 96 % of control | dose: 82.0 mg/kg/injection, schedule: Q01DX Z (ip), vehicle: carboxymethylcellulose (CMC) 103 % of control | [21] 102 % of control | dose: 150.0 mg/kg/injection, schedule: Q01DX Z (ip), vehicle: carboxymethylcellulose (CMC) 100 % of control | [22] 107 % of control | [23] 95 % of control

CC(NNC(c1ccccc1)(c1ccccc1)c1ccccc1)c1ccccc1I (stereo not drawn)
inactive: dose: 100.0 mg/kg/injection, schedule: Q04DX002 (ip), vehicle: saline with Tween-80 93 % of control | dose: 200.0 mg/kg/injection, schedule: Q04DX002 (ip), vehicle: saline with Tween-80 95 % of control | dose: 400.0 mg/kg/injection, schedule: Q04DX002 (ip), vehicle: saline with Tween-80 97 % of control

Cc1ccc(NC(=O)c2ccc(C(=O)Nc3ccc(C)cc3)cc2)cc1
inactive: dose: 56.0 mg/kg/injection, schedule: Q01DX Z (ip), vehicle: carboxymethylcellulose (CMC) 88 % of control | dose: 225.0 mg/kg/injection, schedule: Q01DX Z (ip), vehicle: carboxymethylcellulose (CMC) 92 % of control

N=C(N)SCCC(=O)O
inactive: dose: 100.0 mg/kg/injection, schedule: Q01DX009 (ip), vehicle: saline 100 % of control | [4] 90 % of control | dose: 200.0 mg/kg/injection, schedule: Q01DX009 (ip), vehicle: saline 110 % of control | [5] 96 % of control | dose: 400.0 mg/kg/injection, schedule: Q01DX009 (ip), vehicle: saline 115 % of control | [6] 95 % of control

O=C1CC2C=CCC12 (stereo not drawn)
inactive: [24] 95 % of control | [25] 93 % of control | dose: 400.0 mg/kg/injection, schedule: Q04DX003 (ip), vehicle: saline with Tween-80 93 % of control

COC(=O)C(Br)c1ccc([N+](=O)[O-])cc1 (stereo not drawn)
inactive: dose: 12.5 mg/kg/injection, schedule: Q01DX009 (ip), vehicle: saline with Tween-80 101 % of control | dose: 12.5 mg/kg/injection, schedule: Q04DX003 (ip), vehicle: saline 98 % of control | dose: 25.0 mg/kg/injection, schedule: Q01DX009 (ip), vehicle: saline with Tween-80 104 % of control | dose: 25.0 mg/kg/injection, schedule: Q04DX003 (ip), vehicle: saline 101 % of control | dose: 50.0 mg/kg/injection, schedule: Q04DX003 (ip), vehicle: saline 93 % of control

CC/C=C/C1(C(C)C)C(=O)NC(=O)NC1=O (tested in a mixture with another compound)
inactive: [7] 100 % of control | [8] 94 % of control | dose: 300.0 mg/kg/injection, schedule: Q01DX001 (ip), vehicle: saline 94 % of control

CCC1=C(C)CN(C)c2ccccc21
inactive: [1] 100 % of control | [2] 100 % of control | [3] 94 % of control

CCOC(=O)C(=O)Nc1cc(C)ccc1C
inactive: [24] 93 % of control | [25] 95 % of control

O=[N+]([O-])c1cccc(N=Cc2ccccc2O)c1
inactive: [9] 93 % of control | [12] 88 % of control | [15] 88 % of control
